Measured values taken from patent US7935699B2, “Pyrazole glucokinase activators” (Hoffmann-La Roche Inc., priority 2006, dated 2011).

What was measured:
[1] = target: T1, Recombinant human liver GK1 (GST-GK) (Homo sapiens, UniProt P35557); experiment: Glucokinase in vitro assay (G6PDH-coupled, NADH at OD340); type: biochemical; settings: for SC1.5 (concentration of activator that produced a 50% increase in the activity of GK): 25° C., 5 mM D-glucose, 10% DMSO, GST-GK; for glucokinase activation (in words): qualitative statement
T1 construct: made in house; host or cells: E. coli
T1 sequence (P35557 1-466 isoform P35557-2): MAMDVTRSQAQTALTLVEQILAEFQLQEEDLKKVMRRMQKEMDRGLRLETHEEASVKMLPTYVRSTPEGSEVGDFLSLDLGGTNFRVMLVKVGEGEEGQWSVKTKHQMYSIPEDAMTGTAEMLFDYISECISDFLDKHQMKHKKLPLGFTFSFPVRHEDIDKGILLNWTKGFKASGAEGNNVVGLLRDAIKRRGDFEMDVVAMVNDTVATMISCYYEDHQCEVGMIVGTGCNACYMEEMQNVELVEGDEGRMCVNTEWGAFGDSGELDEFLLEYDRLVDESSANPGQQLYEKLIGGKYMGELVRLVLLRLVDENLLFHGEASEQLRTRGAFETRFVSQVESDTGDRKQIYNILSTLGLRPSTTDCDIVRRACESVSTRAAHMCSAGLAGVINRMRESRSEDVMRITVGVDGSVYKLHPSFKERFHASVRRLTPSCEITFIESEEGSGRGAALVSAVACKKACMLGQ
Procedure: Glucokinase In Vitro Assay Protocol: Glucokinase (GK) was assayed by coupling the production of glucose-6-phosphate to the generation of NADH with glucose-6-phosphate dehydrogenase (G6PDH, 0.75-1 kunits/mg; Boehringer Mannheim, Indianapolis, Ind.) from Leuconostoc mesenteroides as the coupling enzyme (Scheme 2).
Recombinant human liver GK1 was expressed in E. coli as a glutathione S-transferase fusion protein (GST-GK) [Liang et al, 1995] and was purified by chromatography over a glutathione-Sepharose 4B affinity column using the procedure provided by the manufacturer (Amersham Pharmacia Biotech, Piscataway, N.J.).
The assay was conducted at 25° C. in a flat bottom 96-well tissue culture plate from Costar (Cambridge, Mass.) with a final incubation volume of 120 μL. The incubation reaction contained the following: 25 mM Hepes buffer (pH 7.1), 25 mM KCl, 5 mM D-glucose, 1 mM ATP, 1.8 mM NAD, 2 mM MgCl2, 1 μM sorbitol-6-phosphate, 1 mM dithiothreitol, test drug or 10% DMSO, 1.8 unit/ml G6PDH, and GK (see below). All organic reagents were >98% pure and were from Boehringer Mannheim with the exceptions of D-glucose and Hepes which were from Sigma Chemical Co, St Louis, Mo. Test compounds were dissolved in DMSO and were added to the incubation reaction minus GST-GK in a volume of 12 μL to yield a final DMSO concentration of 10%. This mix was pre-incubated in the temperature controlled chamber of a SPECTRAmax 250 microplate spectrophotometer (Molecular Devices Corporation, Sunnyvale, Calif.) for 10 minutes to allow temperature equilibrium and then the reaction was started by the addition of 20 μL GST-GK.
After addition of enzyme, the increase in optical density (OD) at 340 nm was monitored over a 10 minute incubation period as a measure of GK activity. Sufficient GST-GK was added to produce an increase in OD340 of 0.08 to 0.1 units over the 10 minute incubation period in wells containing 10% DMSO but no test compound. Preliminary experiments established that the GK reaction was linear over this period of time even in the presence of activators that produced a 5-fold increase in GK activity. The GK activity in control wells was compared with the activity in wells containing test GK activators, and the concentration of activator that produced a 50% increase in the activity of GK, i.e., the SC1.5, was calculated.

[2] = system: Diet-Induced Obese (DIO) C57BL/6J mice; experiment: Glucokinase activator in vivo screen, blood glucose in DIO mice; settings: Mus musculus; 2 hours post 25 mg/kg oral dose in DIO mice, vs control; read-out: % gluc @ 2 H (% glucose lowering vs control)
Procedure: Glucokinase Activator in vivo Screen Protocol in Lean and Diet Induced Obese Mice: Lean or Diet-Induced Obese (DIO) C57BL/6J mice were orally dosed via gavage with Glucokinase (GK) activator (50 mg/kg body weight for lean mice, 25 mg/kg body weight for DIO mice) following a two hour fasting period. Blood glucose determinations were made four times during the six hour post-dose study period.
C57Bl/6J mice were obtained from Jackson Laboratory (Bar Harbor, Me.) and were maintained in a light-dark cycle with lights on from 0600-1800 hr. For studies in lean mice, the mice were received at age six weeks and given ad libitum access to control diet (LabDiet 5001 chow, PMI Nutrition, Brentwood, Mo.), and were at least age 11 weeks at the time of study. For studies in the DIO model, the mice were received at age five weeks and given ad libitum access to Bio-Serv F3282 High Fat Diet (Frenchtown, N.J.), and were at least age 16 weeks at the time of study. The experiments were conducted during the light phase of the light-dark cycle. Mice (n=6) are weighed and fasted for a two hour period prior to oral treatment. GK activators are formulated in Gelucire vehicle (Ethanol:Gelucire44/14:PEG400q.s. 4:66:30 v/w/v. For studies in lean mice, the mice were dosed orally with 5.0 μL per gram of body weight with 5 ml/kg×10.0 mg/ml formulation to equal a 50 mg/kg dose. For studies in DIO mice, the mice were dosed orally with 5.0 μL per gram of body weight with […] formulation to equal a 25 mg/kg dose. Immediately prior to dosing, a pre-dose (time zero) blood glucose reading was acquired by snipping off a small portion of the animal's tail (˜1 mm) and collecting 15 μL blood into a heparinized capillary tube for analysis. Following GK activator administration, additional blood glucose readings were taken at 2, 4 and 6 hours post dose from the same tail wound. Results were interpreted by comparing the mean blood glucose values of six vehicle treated mice with six GK activator treated mice over the six hour study duration.

| Compound | SC1.5 (concentration of activator that produced a 50% increase in the activity of GK) [1] | glucokinase activation (in words) [1] | change in vivo at 25 mg/kg [2] |
| --- | --- | --- | --- |
| CS(=O)(=O)c1ccc([C@@H](CC2CCCC2)C(=O)Nc2ccn(CC(=O)N3CCOCC3)n2)cc1Cl [Example 7, 2(R)-(3-Chloro-4-methanesulfonyl-phenyl)-3-cyclopentyl-N-[1-(2-morpholin-4-yl-2-oxo-ethyl)-1H-pyrazol-3-yl]-propionamide] |  |  | -15.3% |
| O=C(Nc1ccn(CCO)n1)[C@H](CC1CCCC1)c1cccc(C(F)(F)F)c1 [Example 79, 3-Cyclopentyl-N-[1-(2-hydroxy-ethyl)-1H-pyrazol-3-yl]-2(R)-(3-trifluoromethyl-phenyl)-propionamide] | 1.433 µM |  |  |
| COCCn1ccc(NC(=O)[C@H](CC2CCCC2)c2ccc(S(C)(=O)=O)c(C)c2)n1 [Example 81, 3-Cyclopentyl-2(R)-(4-methanesulfonyl-3-methyl-phenyl)-N-[1-(2-methoxy-ethyl)-1H-pyrazol-3-yl]-propionamide] |  |  | -31.4% |
| COCCCNC(=O)c1ccc(Cn2ccc(NC(=O)[C@H](CC3CCCC3)c3ccc(S(C)(=O)=O)c(Cl)c3)n2)cc1 [Example 47, 4-{3-[2-(R)-(3-Chloro-4-methanesulfonyl-phenyl)-3-cyclopentyl-propionylamino]-pyrazol-1-ylmethyl}-N-(3-methoxy-propyl)-benzamide] | 0.03 µM |  |  |
| CS(=O)(=O)c1ccc([C@@H](CC2CCCC2)C(=O)Nc2ccn(CC3(O)CC3)n2)cc1Cl [Example 73, 2-(R)-(3-Chloro-4-methanesulfonyl-phenyl)-3-cyclopentyl-N-[1-(1-hydroxy-cyclopropylmethyl)-1H-pyrazol-3-yl]-propionamide] |  |  | -48.5% |
| Cc1cc([C@@H](CC2CCCC2)C(=O)Nc2ccn(CCO)n2)ccc1S(C)(=O)=O [Example 78, 3-Cyclopentyl-N-[1-(2-hydroxy-ethyl)-1H-pyrazol-3-yl]-2(R)-(4-methanesulfonyl-3-methyl-phenyl)-propionamide] |  |  | -26.7% |
| CCS(=O)(=O)n1ccc(NC(=O)[C@H](CC2CCCC2)c2ccc(S(C)(=O)=O)c(Cl)c2)n1 [Example 33, 2(R)-(3-Chloro-4-methanesulfonyl-phenyl)-3-cyclopentyl-N-(1-ethanesulfonyl-1H-pyrazol-3-yl)-propionamide] |  |  | -9.8% |
| COC(=O)c1ccc(Cn2ccc(NC(=O)[C@H](CC3CCCC3)c3ccc(S(C)(=O)=O)c(Cl)c3)n2)cc1 [Example 44, 4-{3-[2-(R)-(3-Chloro-4-methanesulfonyl-phenyl)-3-cyclopentyl-propionylamino]-pyrazol-1-ylmethyl}-benzoic acid methyl ester] | 0.061 µM |  |  |
| COCCn1ccc(NC(=O)[C@H](CC2CCCC2)c2cccc(C(F)(F)F)c2)n1 [Example 84, 3-Cyclopentyl-N-[1-(2-methoxy-ethyl)-1H-pyrazol-3-yl]-2(R)-(3-trifluoromethyl-phenyl)-propionamide] |  |  | -24.5% |
| CS(=O)(=O)c1ccc([C@@H](CC2CCCC2)C(=O)Nc2ccn(C[C@@H](O)CO)n2)cc1Cl [Example 35, 2-(R)-(3-Chloro-4-methanesulfonyl-phenyl)-3-cyclopentyl-N-[1-((R)-2,3-dihydroxy-propyl)-1H-pyrazol-3-yl]-propionamide] |  |  | -33.2% |
| CS(=O)(=O)c1ccc([C@@H](CC2CCCC2)C(=O)Nc2cc[nH]n2)cc1Cl [Example 2, 2(R)-(3-Chloro-4-methanesulfonyl-phenyl)-3-cyclopentyl-N-(1H-pyrazol-3-yl)-propionamide] | 0.28 µM |  |  |
| Cc1cc([C@@H](CC2CCCC2)C(=O)Nc2ccn(CCCO)n2)ccc1S(C)(=O)=O [Example 82, 3-Cyclopentyl-N-[1-(3-hydroxy-propyl)-1H-pyrazol-3-yl]-2(R)-(4-methanesulfonyl-3-methyl-phenyl)-propionamide] |  |  | -38.3% |

Continued, in another order:

| SC1.5 (concentration of activator that produced a 50% increase in the activity of GK) [1] | glucokinase activation (in words) [1] | Compound | change in vivo at 25 mg/kg [2] |
| --- | --- | --- | --- |
| 0.13 µM |  | CC(C)n1ccc(NC(=O)[C@H](CC2CCCC2)c2ccc(S(C)(=O)=O)c(Cl)c2)n1 [Example 56, 2-(R)(3-Chloro-4-methanesulfonyl-phenyl)-3-cyclopentyl-N-(1-isopropyl-1H-pyrazol-3-yl)-propionamide] |  |
| 0.45 µM |  | CCCNC(=O)CCn1ccc(NC(=O)[C@H](CC2CCCC2)c2ccc(S(C)(=O)=O)c(Cl)c2)n1 [Example 11, 2(R)-(3-Chloro-4-methanesulfonyl-phenyl)-3-cyclopentyl-N-[1-(2-propylcarbamoyl-ethyl)-1H-pyrazol-3-yl]-propionamide] |  |
|  | active | CC(C)(O)Cn1ccc(NC(=O)[C@H](CC2CCOCC2)c2ccc(S(C)(=O)=O)c(Cl)c2)n1 [Example 90, 2(R)-(3-Chloro-4-methanesulfonyl-phenyl)-N-[1-(2-hydroxy-2-methyl-propyl)-1H-pyrazol-3-yl]-3-(tetrahydro-pyran-4-yl)-propionamide] |  |
|  | active | CC(C)(O)Cn1ccc(NC(=O)[C@H](CC2CCOCC2)c2ccc(Cl)c(Cl)c2)n1 (single isomer, unassigned) [Example 88] |  |
| 5.3 µM | active | CS(=O)(=O)c1ccc([C@@H](CC2CCOCC2)C(=O)Nc2ccn(CCO)n2)cc1Cl (single isomer, unassigned) [Example 76] |  |
| 0.2 µM |  | CC(C)(C)OC(=O)CCn1ccc(NC(=O)[C@H](CC2CCCC2)c2ccc(S(C)(=O)=O)c(Cl)c2)n1 [Example 8, 3-{3-[2(R)-(3-Chloro-4-methanesulfonyl-phenyl)-3-cyclopentyl-propionylamino]-pyrazol-1-yl}-propionic acid tert-butyl ester] |  |
|  | active | CC(C)(O)Cn1ccc(NC(=O)[C@H](CC2COC2)c2ccc(S(C)(=O)=O)c(Cl)c2)n1 (single isomer, unassigned) [Example 92] |  |
| 0.083 µM |  | CS(=O)(=O)c1ccc([C@@H](CC2CCCC2)C(=O)Nc2ccn(Cc3ccccc3)n2)cc1Cl [Example 24, N-(1-Benzyl-1H-pyrazol-3-yl)-2(R)-(3-chloro-4-methanesulfonyl-phenyl)-3-cyclopentyl-propionamide] |  |
